In patent US9120820B2, “Fluorescent molecular probes for use in assays that measure test compound competitive binding with SAM-utilizing proteins” (CAYMAN CHEMICAL COMPANY, INCORPORATED, priority 2011, dated 2015):

How the values were obtained:
GLP = molecular target: T1, GLP (Homo sapiens, UniProt Q9H9B1); experiment: Radiometric methyltransferase assay, GLP; format: biochemical; conditions: GLP 10 nM; compound 10 μM, 1 μM, or 0.1 μM; FIG. 13
T1 sequence (Q9H9B1 1-1298): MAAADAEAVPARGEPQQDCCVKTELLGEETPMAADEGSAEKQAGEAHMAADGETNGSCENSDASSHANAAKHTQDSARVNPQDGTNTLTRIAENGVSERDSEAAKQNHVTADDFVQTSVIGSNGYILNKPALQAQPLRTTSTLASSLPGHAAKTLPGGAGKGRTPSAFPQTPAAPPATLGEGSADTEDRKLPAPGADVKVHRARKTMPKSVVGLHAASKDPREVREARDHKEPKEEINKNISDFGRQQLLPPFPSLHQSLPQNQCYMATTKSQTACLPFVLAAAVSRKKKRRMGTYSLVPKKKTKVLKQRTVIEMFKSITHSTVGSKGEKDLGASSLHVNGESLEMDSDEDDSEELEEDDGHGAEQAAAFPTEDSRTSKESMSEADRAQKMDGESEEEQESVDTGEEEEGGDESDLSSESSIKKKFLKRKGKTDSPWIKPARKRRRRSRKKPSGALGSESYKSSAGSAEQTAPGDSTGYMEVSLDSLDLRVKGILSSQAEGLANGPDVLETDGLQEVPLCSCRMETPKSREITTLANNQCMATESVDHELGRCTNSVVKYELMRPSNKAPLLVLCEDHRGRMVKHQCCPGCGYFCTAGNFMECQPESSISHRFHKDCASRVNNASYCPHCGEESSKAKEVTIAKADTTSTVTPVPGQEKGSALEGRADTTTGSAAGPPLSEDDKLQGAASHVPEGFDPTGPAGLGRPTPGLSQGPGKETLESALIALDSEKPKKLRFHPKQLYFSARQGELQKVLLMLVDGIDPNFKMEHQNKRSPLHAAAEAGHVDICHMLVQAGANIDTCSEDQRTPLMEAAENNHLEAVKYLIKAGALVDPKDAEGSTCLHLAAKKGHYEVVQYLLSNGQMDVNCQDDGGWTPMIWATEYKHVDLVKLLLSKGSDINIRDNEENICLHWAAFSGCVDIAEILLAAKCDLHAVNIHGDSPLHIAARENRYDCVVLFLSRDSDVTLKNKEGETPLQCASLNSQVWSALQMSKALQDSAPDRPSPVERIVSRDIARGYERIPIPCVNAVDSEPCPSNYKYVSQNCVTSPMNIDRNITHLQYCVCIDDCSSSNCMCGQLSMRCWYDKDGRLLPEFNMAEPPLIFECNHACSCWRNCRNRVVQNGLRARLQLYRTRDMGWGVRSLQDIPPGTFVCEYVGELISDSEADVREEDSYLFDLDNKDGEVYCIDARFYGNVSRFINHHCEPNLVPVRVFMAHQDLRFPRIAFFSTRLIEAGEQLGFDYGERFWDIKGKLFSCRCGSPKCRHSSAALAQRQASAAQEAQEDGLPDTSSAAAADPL
Description: (§1) Reagents: Compound 16A was prepared by the method described in Example 4 and illustrated in FIG. 5. The Compounds 20A-iv and 20A-iii were prepared according to methods described in Example 6 and illustrated in FIG. 7. Enzymes were obtained from the Cayman Catalog with the exception of PRMT4 and PRMT6, which were produced in baculovirus and purified to near homogeneity using Ni-affinity chromatography. Human core histones were purified from HeLa nuclear pellet per the method of Coté et al. S-adenosylmethionine (SAM) was obtained from Sigma-Aldrich (Cat #A7007) and S-[methyl-3H]-SAM was obtained from Perkin-Elmer ([…]). Methods: […] To this was added enzyme diluted to provide a final assay concentration (GLP: 10 nM; PRMT1: 100 nM; SET7/9: 120 nM; PRDM9: 120 nM; PRMT4: 150 nM; PRMT6: 120 nM; G9a: 200 nM) and the compound was allowed to preincubate for 10 minutes at room temperature. […] Samples were mixed immediately after quenching and transferred to a 96-well GFC Uni-Filter microtiter filter plate (Perkin Elmer, Cat#6005174) that contained 50 μl of 20% TCA. Samples were allowed to precipitate for at least 5 minutes at room temperature. The samples were filtered onto the GFC membrane and washed four times with 100 μl of 10% TCA and once with 100 μl of 95% EtOH. To each well was added 25 μl of MicroScint-20 (Perkin-Elmer Cat#6013621) and samples were analyzed using a TopCount NXT microplate scintillation counter. The experiment was performed one time in duplicate for all compound concentrations tested and in triplicate for the vehicle and no enzyme controls. All data was analyzed in GraphPad Prism (v. 5.04).

SET7/9 = molecular target: T2, SET7/9 (Homo sapiens, UniProt Q8WTS6); experiment: Radiometric methyltransferase assay, SET7/9; format: biochemical; conditions: SET7/9 120 nM; compound 10 μM, 1 μM, or 0.1 μM; FIG. 13
T2 construct: purchased Cayman 10320
T2 sequence (Q8WTS6 1-366): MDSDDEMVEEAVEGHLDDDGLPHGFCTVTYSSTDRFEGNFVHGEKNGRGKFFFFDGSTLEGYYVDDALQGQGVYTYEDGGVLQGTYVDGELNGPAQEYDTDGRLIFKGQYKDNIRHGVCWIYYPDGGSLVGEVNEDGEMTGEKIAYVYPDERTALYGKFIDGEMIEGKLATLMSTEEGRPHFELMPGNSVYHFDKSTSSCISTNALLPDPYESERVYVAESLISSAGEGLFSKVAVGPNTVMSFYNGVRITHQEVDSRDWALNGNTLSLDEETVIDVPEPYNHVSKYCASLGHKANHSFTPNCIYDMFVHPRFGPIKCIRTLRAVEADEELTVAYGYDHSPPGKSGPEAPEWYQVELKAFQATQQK
Description: as §1

PRDM9 = molecular target: T3, PRDM9 (Homo sapiens, UniProt Q9NQV7); experiment: Radiometric methyltransferase assay, PRDM9; format: biochemical; conditions: PRDM9 120 nM; compound 10 μM, 1 μM, or 0.1 μM; FIG. 13
T3 construct: purchased Cayman
T3 sequence (Q9NQV7 whole entry, species assumed): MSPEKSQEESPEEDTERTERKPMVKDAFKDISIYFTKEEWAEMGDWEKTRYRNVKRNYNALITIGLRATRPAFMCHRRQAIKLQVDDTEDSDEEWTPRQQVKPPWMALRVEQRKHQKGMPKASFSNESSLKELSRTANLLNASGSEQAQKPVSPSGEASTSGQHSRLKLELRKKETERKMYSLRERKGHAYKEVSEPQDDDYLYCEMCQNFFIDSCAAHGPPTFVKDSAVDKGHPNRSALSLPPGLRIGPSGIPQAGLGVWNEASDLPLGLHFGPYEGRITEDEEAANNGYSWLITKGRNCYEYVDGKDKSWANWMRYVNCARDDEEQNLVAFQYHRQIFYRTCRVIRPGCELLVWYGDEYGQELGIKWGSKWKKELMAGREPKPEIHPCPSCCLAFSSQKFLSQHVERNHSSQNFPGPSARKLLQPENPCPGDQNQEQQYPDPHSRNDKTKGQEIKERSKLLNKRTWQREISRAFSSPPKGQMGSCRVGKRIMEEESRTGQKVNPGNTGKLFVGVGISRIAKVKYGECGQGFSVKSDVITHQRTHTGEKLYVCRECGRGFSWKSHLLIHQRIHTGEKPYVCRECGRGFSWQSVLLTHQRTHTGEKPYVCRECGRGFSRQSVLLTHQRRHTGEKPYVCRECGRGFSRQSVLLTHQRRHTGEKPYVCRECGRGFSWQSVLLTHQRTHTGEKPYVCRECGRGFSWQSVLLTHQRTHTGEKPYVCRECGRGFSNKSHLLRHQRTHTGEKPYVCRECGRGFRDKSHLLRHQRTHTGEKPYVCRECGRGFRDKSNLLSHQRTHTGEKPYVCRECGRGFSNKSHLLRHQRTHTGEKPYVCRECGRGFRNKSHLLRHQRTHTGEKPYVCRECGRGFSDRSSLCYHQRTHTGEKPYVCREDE
Description: as §1

PRMT6 = molecular target: T4, PRMT6 (Homo sapiens, UniProt Q96LA8); experiment: Radiometric methyltransferase assay, PRMT6; format: biochemical; conditions: PRMT6 120 nM; compound 10 μM, 1 μM, or 0.1 μM; FIG. 13
T4 construct: made in house; host or cells: baculovirus expression
T4 sequence (Q96LA8 whole entry, species assumed): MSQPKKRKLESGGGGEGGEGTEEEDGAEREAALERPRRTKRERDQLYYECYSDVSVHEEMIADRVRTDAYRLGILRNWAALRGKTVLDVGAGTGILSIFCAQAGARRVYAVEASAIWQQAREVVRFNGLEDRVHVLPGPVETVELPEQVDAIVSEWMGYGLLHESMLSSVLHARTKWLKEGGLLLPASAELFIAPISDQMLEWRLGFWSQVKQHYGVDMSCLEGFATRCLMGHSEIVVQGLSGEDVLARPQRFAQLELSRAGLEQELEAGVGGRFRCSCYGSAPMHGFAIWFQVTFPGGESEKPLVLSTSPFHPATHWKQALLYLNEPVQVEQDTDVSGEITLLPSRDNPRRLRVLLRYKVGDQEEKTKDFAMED
Description: as §1

DNMT3b = DNMT3b (Homo sapiens, UniProt Q9UBC3); experiment: Fluorescence polarization saturation binding of fluorescent probe to DNMT3b; conditions: saturation-binding format, read-out: Sinefungin Probe 1A Affinity
Description: Sinefungin Probe 1A was tested for the ability to bind to 16 proteins, including several non-methlytransferase protein controls (Table 2). This probe binds to 4 methyltransferases (SET7/9, G9a, GLP, MLL) with Kd values <2 μM.

inhibition of enzymatic activity (GLP)	inhibition of enzymatic activity (SET7/9)	inhibition of enzymatic activity (PRDM9)	inhibition of enzymatic activity (PRMT6)	Kd (DNMT3b)	Structure (SMILES)
not dramatically altering the activity	not dramatically altering the activity	inhibits	not dramatically altering the activity	–	CSC[C@H]1O[C@@H](n2cnc3c(N)nc(NCCNC(=O)OC(C)(C)C)nc32)[C@H](O)[C@@H]1O [Compound 16A, tert-butyl (2-((6-amino-9-((2R,3R,4S,5S)-3,4-dihydroxy-5-((methylthio)methyl)tetrahydrofuran-2-yl)-9H-purin-2-yl)amino)ethyl)carbamate]
did not show appreciable inhibition	did not show appreciable inhibition	did not show appreciable inhibition	some modest inhibition	–	CCNC(=O)[C@H]1O[C@@H](n2cnc3c(N)nc(Cl)nc32)[C@H](O)[C@@H]1O [Compound 20A-iii, 2-chloroadenosine-5′-N-ethylcarboxamide]
did not show appreciable inhibition	did not show appreciable inhibition	did not show appreciable inhibition	did not show appreciable inhibition	–	CCNC[C@H]1O[C@@H](n2cnc3c(N)nc(Cl)nc32)[C@H](O)[C@@H]1O [Compound 20A-iv, 2-chloroadenosine-5′-N-ethylamine]
–	–	–	–	> 2000 nM	Nc1ncnc2c1ncn2[C@@H]1O[C@H](C[C@@H](N)CC[C@H](N)C(=O)O)[C@@H](OCc2cnnn2CCCCCCNC(=O)OC2CCN(C(=O)c3ccccc3C3=c4cc5c6c(c4Oc4c3cc3c7c4CCCN7CCC3)CCC[N+]=6CCC5)CC2)[C@H]1O [Sinefungin Probe 1A]
